Measured values from patent US20100233456A1, “LIGHT-STABILIZED POLYPROPYLENE” (SUMITOMO CHEMICAL COMPANY, LIMITED, priority 2007, published 2010).

Experiments:
[1] = Rate of weight loss by TG/DTA; assay type: physicochemical; conditions: heated in nitrogen gas from 25° C. to 300° C. at 10° C./minute
Method: Regarding the requirement (c), the rate of decrease in weight by heating under the above conditions is preferably less than 5%, and further preferably less than 3%, from a viewpoint of an emission amount of VOC and light stability. A rate of decrease in weight of the hindered amine light stabilizer (B) is measured using a thermo gravimetry differential thermal analyzer (hereinafter, referred to as TG/DTA). Specifically, the hindered amine light stabilizer (B) is heated from 25° C. to 300° C. at a rate of 10° C./minute in a nitrogen gas atmosphere, which gas is flowed at a constant rate of 100 mL/minute, thereby measuring the rate (percentage) of a weight loss to the original weight with a thermobalance.

[2] = Acid dissociation constant (pKa) by titration method
Method: The pKa value is an index showing an inherent nature of the compound having a 2,2,6,6-tetramethylpiperidyl group represented by the general formula (I), and is measured by a titration method known in the art, which is a measurement method of an acid dissociation constant based on a Brøsted's definition.

| Rate of weight loss by TG-DTA [1] | Compound | pKa [2] |
| --- | --- | --- |
| 68.6% | CCCCCCCCON1C(C)(C)CC(OC(=O)CCCCCCCCC(=O)OC2CC(C)(C)N(OCCCCCCCC)C(C)(C)C2)CC1(C)C [Example B-4, bis(1-octyloxy-2,2,6,6-tetramethylpiperidin-4-yl) sebacate] |  |
| 19.6% | CC1(C)CC(OC(=O)CCCCCCCCC(=O)OC2CC(C)(C)NC(C)(C)C2)CC(C)(C)N1 [Example B-3, bis(2,2,6,6-tetramethyl-4-piperidyl) sebacate] |  |

Second part, the compound before the results:

| Compound | Rate of weight loss by TG-DTA [1] | pKa [2] |
| --- | --- | --- |
| CC(C)(C)c1ccc(OC(=O)c2cc(C(C)(C)C)c(O)c(C(C)(C)C)c2)c(C(C)(C)C)c1 [Example B-6, 2,4-di-t-butylphenyl-3,5-di-t-butyl-4-hydroxybenzoate] | 31.6% |  |
| N,N-bis(3-aminopropyl)ethylenediamine. 2,4-bis[N-butyl-N-(1,2,2,6,6-pentamethyl-4-piperidyl)amino]-6-chloro-1,3,5-triazine condensate [Example B-5] | 0.6% | 9.2 |
| CN1C(C)(C)CC(OC(=O)CC(C(=O)OC2CC(C)(C)N(C)C(C)(C)C2)C(CC(=O)OC2CC(C)(C)N(C)C(C)(C)C2)C(=O)OC2CC(C)(C)N(C)C(C)(C)C2)CC1(C)C (stereo not shown) [Example B-2, tetrakis(1,2,2,6,6-pentamethyl-4-piperidyl) 1,2,3,4-buteane tetracarboxylate] | 5.8% | 8.9 |
